Measurements reported in patent publication US7557133B2, “Caspase inhibitors containing isoxazoline ring” (LG Life Sciences Ltd., priority 2003, dated 2009).

Legend:
[1] = tested on: Jurkat cell (ATCC TIB-152); test: Jurkat cell apoptosis by Fas antibody, WST-1 method; format: cell-based; details: for IC50: apoptosis using Fas antibody, WST-1
Method in brief: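 Jurkat cells (ATCC TIB-152) induced to apoptosis with Fas antibody in the presence of inhibitor. Viable cells quantified by WST-1 colour change, absorbance at 440 nm.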

caspase-9 = biological target: T1, caspase-9 (Homo sapiens, UniProt P55211); test: Caspase-9 inhibitory effect (fluorescent substrate AcLEHD-AFC); format: biochemical; details: pH 7.5; 25° C., 150 μM AcLEHD-AFC, 200 nM caspase-9; read-out: Caspase-9 Kobs/[I] (converted)
T1 construct: p10 and p20 subunits (Thornberry, N. A. et al, Nature, 1992, 356, 768) were expressed in E. coli; made in house; host or cells: E. coli
T1 sequence (P55211 1-315 limits assumed): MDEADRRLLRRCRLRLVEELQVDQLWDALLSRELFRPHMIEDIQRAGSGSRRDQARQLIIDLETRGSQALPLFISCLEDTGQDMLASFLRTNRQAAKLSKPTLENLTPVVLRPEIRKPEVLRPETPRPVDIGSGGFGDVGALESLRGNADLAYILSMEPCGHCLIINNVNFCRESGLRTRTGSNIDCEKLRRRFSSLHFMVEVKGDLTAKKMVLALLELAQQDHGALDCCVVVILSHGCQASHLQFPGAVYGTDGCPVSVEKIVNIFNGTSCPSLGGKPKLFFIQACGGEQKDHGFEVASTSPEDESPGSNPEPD
T1 sequence (P55211 331-416 limits assumed): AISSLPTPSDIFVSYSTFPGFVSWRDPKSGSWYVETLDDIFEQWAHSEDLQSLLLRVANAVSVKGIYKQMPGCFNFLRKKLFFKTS
Method: Caspase-1 and caspase-8 known as cysteine proteases in the form of α2β2 were expressed, purified, and activated by modifying a method known in Thornberry, N. A. et al, Nature, 1992, 356, 768. Thornberry, N. A. Methods in Enzymology, 1994, 244, 615. Walker, N. P. C. et al. Cell, 1994, 78, 343, and caspase-9 was also purified by a similar method, and the inhibitory activity against them was tested. Briefly describing, p10 and p20 subunits (Thornberry, N. A. et al, Nature, 1992, 356, 768) were expressed in E. coli and purified by nickel column and anionic exchange chromatography to give caspase-1, caspase-8 and caspase-9. The fluorescent substrate AcYVAD-AFC for thus obtained caspase-1, AcDEVD-AFC for caspase-8, and AcLEHD-AFC for caspase-9 were used for determining specific activity of the synthesized inhibitors. […] The inhibitory constants Ki and Kobs of the inhibitors were determined by measuring the reaction velocity with the time lapse using a fluorescent spectrometer and by obtaining the initial rate constant. Ki was calculated from the Lineweaver Burk Plot, and Kobs from the following Equation 1. […]

caspase-1 = biological target: T2, caspase-1 (Homo sapiens, UniProt P29466); test: Caspase-1 inhibitory effect (fluorescent substrate AcYVAD-AFC); format: biochemical; details: pH 7.5; 25° C., 50 μM AcYVAD-AFC, 10 nM caspase-1; read-out: Caspase-1 Kobs/[I] (converted)
T2 construct: p10 and p20 subunits (Thornberry, N. A. et al, Nature, 1992, 356, 768) were expressed in E. coli; made in house; host or cells: E. coli
T2 sequence (P29466 120-297 limits assumed): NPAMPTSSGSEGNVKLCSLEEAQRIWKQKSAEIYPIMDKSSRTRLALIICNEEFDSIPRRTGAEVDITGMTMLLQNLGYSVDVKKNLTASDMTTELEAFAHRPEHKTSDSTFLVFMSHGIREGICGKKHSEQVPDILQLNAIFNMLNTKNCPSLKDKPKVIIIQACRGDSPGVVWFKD
T2 sequence (P29466 317-404 limits assumed): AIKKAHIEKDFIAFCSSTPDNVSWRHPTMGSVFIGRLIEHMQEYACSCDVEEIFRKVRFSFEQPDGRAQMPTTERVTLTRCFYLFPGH
Method: Caspase-1 and caspase-8 known as cysteine proteases in the form of α2β2 were expressed, purified, and activated by modifying a method known in Thornberry, N. A. et al, Nature, 1992, 356, 768. Thornberry, N. A. Methods in Enzymology, 1994, 244, 615. Walker, N. P. C. et al. Cell, 1994, 78, 343, and caspase-9 was also purified by a similar method, and the inhibitory activity against them was tested. Briefly describing, p10 and p20 subunits (Thornberry, N. A. et al, Nature, 1992, 356, 768) were expressed in E. coli and purified by nickel column and anionic exchange chromatography to give caspase-1, caspase-8 and caspase-9. The fluorescent substrate AcYVAD-AFC for thus obtained caspase-1, AcDEVD-AFC for caspase-8, and AcLEHD-AFC for caspase-9 were used for determining specific activity of the synthesized inhibitors. The enzyme reaction was carried out at 25° C. with various concentrations of the inhibitors in a buffer solution containing 50 mM HEPES(pH 7.50), 10% (w/v) sucrose, 0.1% (w/v) CHAPS, 100 mM NaCl, 1 mM EDTA, and 10 mM DTT in the presence of 50 μM AcYVAD-AFC for 10 nM caspase-1, 50 μM AcDEVD-AFC for 2.1 nM caspase-8, and 150 μM AcLEHD-AFC for 200 nM caspase-9. The inhibitory constants Ki and Kobs of the inhibitors were determined by measuring the reaction velocity with the time lapse using a fluorescent spectrometer and by obtaining the initial rate constant. Ki was calculated from the Lineweaver Burk Plot, and Kobs from the following Equation 1. Kobs=−ln(1−At/Aoo)/t Equation 1
At means cleavate rate (%) at time t, and
Aoo means the maximum cleavage rate (%).
Spectra MAX GeminiXS Fluorescent Spectrometer of Molecular Device Co. was used at the excitation wavelength of 405 nm and the emission wavelength of […].

hepatic fibrosis = test: Inhibitory effect against hepatic fibrosis in SD rats (biliary duct ligation, Sirius red staining); format: in vivo, rat; details: BDL rats, 3 or 10 mg/kg orally twice a day for 1 week
Method: Male Spargue-Dawley rats (6 weeks, Korea Biolink) were kept under the conditions of 22 °C, 55% of relative humidity, and light-darkness cycle of 12 hours. Food and water were supplied ad libitum. For the ligation of biliary duct, the rats were anesthetized by inhalation of 1% halothane, abdomen of the rats were cut open, the distal and proximal biliary ducts were ligated, the part between the ligation sites were cut, 2 ml of saline was injected, and sutured. Test compound (Iii) was orally administered in a dosage of 3 mg/kg or 10 mg/kg twice a day. That is, the compound was dissolved in a cosolvent (PEG400:ethanol:Tween80=15:7.5:2.5), diluted with phosphate buffer (pH 7.4) by five times, and administered. To the control group was administered the solution without the test compound. The administration was made for 1 week after 1 week from the ligation of biliary duct. After the administration, the rats were sacrificed. The livers were fixed by 10% neutral formalin and a paraffin section of 5 μm thickness was prepared and stained by 0.1% Sirius red (Direct red 80, Sigma). The tissue section was investigated by an optical microscope to observe the collagen fibers stained in red, and the results are represented in FIG. 1.

`CC(C)[C@@]1(C(=O)NC(CC(=O)O)C(=O)CF)CC(c2nccc3ccccc23)=NO1` (stereo partly drawn) [Iii, 5-Fluoro-3-({[(5R)-5-isopropyl-3-(1-isoquinolinyl)-4,5-dihydro-5-isoxazolyl]carbonyl}amino)-4-oxopentanoic acid] was tested, and the “increased inhibitory activity against Jurkat cell compared with LB84068MP” value [1] was ≥ 10 times, the IC50 ([1]; Homo sapiens, Jurkat) was 0.1 µM and the IC50 [1] was ≤ 0.1 µM. For the same compound, the kinact/KI (caspase-9) was 3330 M⁻¹ s⁻¹, the kinact/KI (caspase-1) was 18300 M⁻¹ s⁻¹ and the “fibrosis by Sirius Red staining” value (hepatic fibrosis) was “almost no fibrosis”.
